{"source": "patent US20110144049A1", "about": "“Treating Cardiac Arrhythmias, Heart Failure, Peripheral Artery Disease and Stroke with Cyclopentyl-Triazolo-Pyrimidine or Derivative Thereof” (priority 2009, published 2011)", "key": {"randomized patients": {"test_system": "randomized patients", "experiment": "Listed Causes of Death from Efficacy Data Set (by randomized treatment)", "format": "in vivo", "conditions": "Ticagrelor 90 mg bd N = 9333; Clopidcgrel 75 mg cd N = 9291", "description": "Causes of death were similar between treatment groups. The most common cause of death was myocardial infarction occurring in about 1% of randomized patients. Sudden death, heart failure, other vascular events and stroke were among the more common causes of death."}, "[1]": {"test_system": "individuals undergoing coronary stent implantation for therapy of Acute Coronary Syndrome (ASC)", "experiment": "large randomized study, primary end point (death from vascular causes, MI or stroke)", "format": "in vivo"}}}
{"smiles": "CCCSc1nc(N[C@@H]2C[C@H]2c2ccc(F)c(F)c2)c2nnn([C@@H]3C[C@H](OCCO)[C@@H](O)[C@H]3O)c2n1", "note": "[Ticagrelor, (1S,2S,3R,5S)-3-[7-[(1R,2S)-2-(3,4-Difluorophenyl)cyclopropylamino]-5-(propylthio)-3H-[1,2,3]triazolo[4,5-d]pyrimidin-3-yl]-5-(2-hydroxyethoxy)cyclopentane-1,2-diol]", "values": [{"measurement": "Cause of death: Aortic dissection, number", "setting": "randomized patients", "value": 1}, {"measurement": "Cause of death: Aortic dissection, percent", "setting": "randomized patients", "value": "(0.0%)"}, {"measurement": "Cause of death: Arterial embolism, number", "setting": "randomized patients", "value": 0}, {"measurement": "Cause of death: Arterial embolism, percent", "setting": "randomized patients", "value": "(0.0%)"}, {"measurement": "Cause of death: Cancer, number", "setting": "randomized patients", "value": 14}, {"measurement": "Cause of death: Cancer, percent", "setting": "randomized patients", "value": "(0.2%)"}, {"measurement": "Cause of death: Cardiac arrhythmia, number", "setting": "randomized patients", "value": 20}, {"measurement": "Cause of death: Cardiac arrhythmia, percent", "setting": "randomized patients", "value": "(0.2%)"}, {"measurement": "Cause of death: Death from bleeding (not related to trauma), number", "setting": "randomized patients", "value": 13}, {"measurement": "Cause of death: Death from bleeding (not related to trauma), percent", "setting": "randomized patients", "value": "(0.1%)"}, {"measurement": "Cause of death: Endocarditis, number", "setting": "randomized patients", "value": 0}, {"measurement": "Cause of death: Endocarditis, percent", "setting": "randomized patients", "value": "(0.0%)"}, {"measurement": "Cause of death: Heart failure, number", "setting": "randomized patients", "value": 51}, {"measurement": "Cause of death: Heart failure, percent", "setting": "randomized patients", "value": "(0.5%)"}, {"measurement": "Cause of death: Liver failure, number", "setting": "randomized patients", "value": 0}, {"measurement": "Cause of death: Liver failure, percent", "setting": "randomized patients", "value": "(0.0%)"}, {"measurement": "Cause of death: Multiorgan failure, number", "setting": "randomized patients", "value": 9}, {"measurement": "Cause of death: Multiorgan failure, percent", "setting": "randomized patients", "value": "(0.1%)"}, {"measurement": "Cause of death: Myocardial infarction, number", "setting": "randomized patients", "value": 89}, {"measurement": "Cause of death: Myocardial infarction, percent", "setting": "randomized patients", "value": "(1.0%)"}, {"measurement": "Cause of death: Other coronary artery disease, number", "setting": "randomized patients", "value": 4}, {"measurement": "Cause of death: Other coronary artery disease, percent", "setting": "randomized patients", "value": "(0.0%)"}, {"measurement": "Cause of death: Other non-vascular cause, number", "setting": "randomized patients", "value": 8}, {"measurement": "Cause of death: Other non-vascular cause, percent", "setting": "randomized patients", "value": "(0.1%)"}, {"measurement": "Cause of death: Other vascular cause, number", "setting": "randomized patients", "value": 44}, {"measurement": "Cause of death: Other vascular cause, percent", "setting": "randomized patients", "value": "(0.5%)"}, {"measurement": "Cause of death: Pneumonia, number", "setting": "randomized patients", "value": 10}, {"measurement": "Cause of death: Pneumonia, percent", "setting": "randomized patients", "value": "(0.1%)"}, {"measurement": "Cause of death: Pulmonary embolism, number", "setting": "randomized patients", "value": 3}, {"measurement": "Cause of death: Pulmonary embolism, percent", "setting": "randomized patients", "value": "(0.0%)"}, {"measurement": "Cause of death: Renal failure, number", "setting": "randomized patients", "value": 2}, {"measurement": "Cause of death: Renal failure, percent", "setting": "randomized patients", "value": "(0.0%)"}, {"measurement": "Cause of death: Respiratory failure, number", "setting": "randomized patients", "value": 13}, {"measurement": "Cause of death: Respiratory failure, percent", "setting": "randomized patients", "value": "(0.1%)"}, {"measurement": "Cause of death: Ruptured aortic aneurysm, number", "setting": "randomized patients", "value": 1}, {"measurement": "Cause of death: Ruptured aortic aneurysm, percent", "setting": "randomized patients", "value": "(0.0%)"}, {"measurement": "Cause of death: Sepsis, number", "setting": "randomized patients", "value": 7}, {"measurement": "Cause of death: Sepsis, percent", "setting": "randomized patients", "value": "(0.1%)"}, {"measurement": "Cause of death: Stroke, number", "setting": "randomized patients", "value": 20}, {"measurement": "Cause of death: Stroke, percent", "setting": "randomized patients", "value": "(0.2%)"}, {"measurement": "Cause of death: Sudden death, number", "setting": "randomized patients", "value": 60}, {"measurement": "Cause of death: Sudden death, percent", "setting": "randomized patients", "value": "(0.6%)"}, {"measurement": "Cause of death: Suicida, number", "setting": "randomized patients", "value": 1}, {"measurement": "Cause of death: Suicida, percent", "setting": "randomized patients", "value": "(0.0%)"}, {"measurement": "Cause of death: Trauma, number", "setting": "randomized patients", "value": 3}, {"measurement": "Cause of death: Trauma, percent", "setting": "randomized patients", "value": "(0.0%)"}, {"measurement": "Cause of death: Unknown, number", "setting": "randomized patients", "value": 39}, {"measurement": "Cause of death: Unknown, percent", "setting": "randomized patients", "value": "(0.4%)"}, {"measurement": "Cause of death: Unstable angina, number", "setting": "randomized patients", "value": 7}, {"measurement": "Cause of death: Unstable angina, percent", "setting": "randomized patients", "value": "(0.1%)"}, {"measurement": "Cause of death: Valvular disease, number", "setting": "randomized patients", "value": 0}, {"measurement": "Cause of death: Valvular disease, percent", "setting": "randomized patients", "value": "(0.0%)"}, {"measurement": "Cause of death: Vascular death, sub-classification missing, number", "setting": "randomized patients", "value": 0}, {"measurement": "Cause of death: Vascular death, sub-classification missing, percent", "setting": "randomized patients", "value": "(0.0%)"}]}
{"smiles": "COC(=O)[C@H](c1ccccc1Cl)N1CCc2sccc2C1", "note": "[clopidogrel]", "values": [{"measurement": "primary end point: first event of death from vascular causes, myocardial infarction (MI) or stroke, occurred in % of patients", "setting": "[1]", "value": 11.7, "unit": "%"}, {"measurement": "Cause of death: Aortic dissection, number", "setting": "randomized patients", "value": 2}, {"measurement": "Cause of death: Aortic dissection, percent", "setting": "randomized patients", "value": "(0.0%)"}, {"measurement": "Cause of death: Arterial embolism, number", "setting": "randomized patients", "value": 2}, {"measurement": "Cause of death: Arterial embolism, percent", "setting": "randomized patients", "value": "(0.0%)"}, {"measurement": "Cause of death: Cancer, number", "setting": "randomized patients", "value": 17}, {"measurement": "Cause of death: Cancer, percent", "setting": "randomized patients", "value": "(0.2%)"}, {"measurement": "Cause of death: Cardiac arrhythmia, number", "setting": "randomized patients", "value": 29}, {"measurement": "Cause of death: Cardiac arrhythmia, percent", "setting": "randomized patients", "value": "(0.3%)"}, {"measurement": "Cause of death: Death from bleeding (not related to trauma), number", "setting": "randomized patients", "value": 15}, {"measurement": "Cause of death: Death from bleeding (not related to trauma), percent", "setting": "randomized patients", "value": "(0.2%)"}, {"measurement": "Cause of death: Endocarditis, number", "setting": "randomized patients", "value": 0}, {"measurement": "Cause of death: Endocarditis, percent", "setting": "randomized patients", "value": "(0.0%)"}, {"measurement": "Cause of death: Heart failure, number", "setting": "randomized patients", "value": 62}, {"measurement": "Cause of death: Heart failure, percent", "setting": "randomized patients", "value": "(0.7%)"}, {"measurement": "Cause of death: Liver failure, number", "setting": "randomized patients", "value": 1}, {"measurement": "Cause of death: Liver failure, percent", "setting": "randomized patients", "value": "(0.0%)"}, {"measurement": "Cause of death: Multiorgan failure, number", "setting": "randomized patients", "value": 14}, {"measurement": "Cause of death: Multiorgan failure, percent", "setting": "randomized patients", "value": "(0.2%)"}, {"measurement": "Cause of death: Myocardial infarction, number", "setting": "randomized patients", "value": 89}, {"measurement": "Cause of death: Myocardial infarction, percent", "setting": "randomized patients", "value": "(0.9%)"}, {"measurement": "Cause of death: Other coronary artery disease, number", "setting": "randomized patients", "value": 4}, {"measurement": "Cause of death: Other coronary artery disease, percent", "setting": "randomized patients", "value": "(0.0%)"}, {"measurement": "Cause of death: Other non-vascular cause, number", "setting": "randomized patients", "value": 11}, {"measurement": "Cause of death: Other non-vascular cause, percent", "setting": "randomized patients", "value": "(0.1%)"}, {"measurement": "Cause of death: Other vascular cause, number", "setting": "randomized patients", "value": 55}, {"measurement": "Cause of death: Other vascular cause, percent", "setting": "randomized patients", "value": "(0.6%)"}, {"measurement": "Cause of death: Pneumonia, number", "setting": "randomized patients", "value": 8}, {"measurement": "Cause of death: Pneumonia, percent", "setting": "randomized patients", "value": "(0.1%)"}, {"measurement": "Cause of death: Pulmonary embolism, number", "setting": "randomized patients", "value": 8}, {"measurement": "Cause of death: Pulmonary embolism, percent", "setting": "randomized patients", "value": "(0.1%)"}, {"measurement": "Cause of death: Renal failure, number", "setting": "randomized patients", "value": 5}, {"measurement": "Cause of death: Renal failure, percent", "setting": "randomized patients", "value": "(0.1%)"}, {"measurement": "Cause of death: Respiratory failure, number", "setting": "randomized patients", "value": 12}, {"measurement": "Cause of death: Respiratory failure, percent", "setting": "randomized patients", "value": "(0.1%)"}, {"measurement": "Cause of death: Ruptured aortic aneurysm, number", "setting": "randomized patients", "value": 0}, {"measurement": "Cause of death: Ruptured aortic aneurysm, percent", "setting": "randomized patients", "value": "(0.0%)"}, {"measurement": "Cause of death: Sepsis, number", "setting": "randomized patients", "value": 23}, {"measurement": "Cause of death: Sepsis, percent", "setting": "randomized patients", "value": "(0.2%)"}, {"measurement": "Cause of death: Stroke, number", "setting": "randomized patients", "value": 18}, {"measurement": "Cause of death: Stroke, percent", "setting": "randomized patients", "value": "(0.2%)"}, {"measurement": "Cause of death: Sudden death, number", "setting": "randomized patients", "value": 77}, {"measurement": "Cause of death: Sudden death, percent", "setting": "randomized patients", "value": "(0.8%)"}, {"measurement": "Cause of death: Suicida, number", "setting": "randomized patients", "value": 1}, {"measurement": "Cause of death: Suicida, percent", "setting": "randomized patients", "value": "(0.0%)"}, {"measurement": "Cause of death: Trauma, number", "setting": "randomized patients", "value": 1}, {"measurement": "Cause of death: Trauma, percent", "setting": "randomized patients", "value": "(0.0%)"}, {"measurement": "Cause of death: Unknown, number", "setting": "randomized patients", "value": 58}, {"measurement": "Cause of death: Unknown, percent", "setting": "randomized patients", "value": "(0.6%)"}, {"measurement": "Cause of death: Unstable angina, number", "setting": "randomized patients", "value": 8}, {"measurement": "Cause of death: Unstable angina, percent", "setting": "randomized patients", "value": "(0.1%)"}, {"measurement": "Cause of death: Valvular disease, number", "setting": "randomized patients", "value": 1}, {"measurement": "Cause of death: Valvular disease, percent", "setting": "randomized patients", "value": "(0.0%)"}, {"measurement": "Cause of death: Vascular death, sub-classification missing, number", "setting": "randomized patients", "value": 1}, {"measurement": "Cause of death: Vascular death, sub-classification missing, percent", "setting": "randomized patients", "value": "(0.0%)"}]}
